Source: the supplement of paper PMC11616607

Columns and labels:
Test in all cases: drug sensitivity score (DSS) from 5-point dose-response viability curve (DSS (area-under-curve based score)); higher = more sensitive (stronger growth inhibition or killing); extreme values may be limits of the assay
Details in all cases: exposure time: 72 h; concentration range: 5 concentrations over 10,000-fold range
JHOS2 = test system: JHOS2
In short: (§1)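 Viability of ovarian cancer and normal ovarian cell lines was read by CellTiter-Glo luminescence after 3 days at 37°C and 5% CO2 in 384-well plates holding 1,500 cells per well. Drugs had been dispensed in DMSO or water with an Echo 550 at five concentrations over a 10,000-fold range. Using Breeze software, a drug sensitivity score was assigned per cell line and drug, higher scores meaning more sensitive, and zero means no response.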

OV90 = test system: OV90
In short: as §1

OVCAR8 = test system: OVCAR8
In short: as §1

COV318 = test system: COV318
In short: as §1

COV362 = test system: COV362
In short: as §1

Kuramochi = test system: Kuramochi
In short: as §1

OVCAR5 = test system: OVCAR5
In short: as §1

CAOV3 = test system: CAOV3
In short: as §1

OVCAR4 = test system: OVCAR4
In short: as §1

Ovsaho = test system: Ovsaho
In short: as §1

HOSE1C = test system: HOSE1C
In short: as §1

HOSE2C = test system: HOSE2C
In short: as §1

Row | SMILES | drug sensitivity score (JHOS2) | drug sensitivity score (OV90) | drug sensitivity score (OVCAR8) | drug sensitivity score (COV318) | drug sensitivity score (COV362) | drug sensitivity score (Kuramochi) | drug sensitivity score (OVCAR5) | drug sensitivity score (CAOV3) | drug sensitivity score (OVCAR4) | drug sensitivity score (Ovsaho) | drug sensitivity score (HOSE1C) | drug sensitivity score (HOSE2C)
1 | COc1ccc(-c2ccc3ncc4c(c3c2)n(-c2ccc(N3CCNCC3)c(C(F)(F)F)c2)c(=O)n4C)cn1 [NVP-BGT226] | 11.6 | 17.2 | 14.9 | 9.3 | 4.6 | 10.2 | 14.6 | 12.7 | 13.6 | 15.6 | 22.2 | 15.7
2 | Cc1ccc(C(=O)Nc2cccc(C(F)(F)F)c2)cc1Nc1nc(-c2cccnc2)nc2c1cnn2C [NVP-BHG712] | 2.1 | 0.1 | 4.9 | 2.8 | 5.6 | 2.5 | 8.8 | 0 | 1.4 | 2.9 | 2.2 | 2.7
3 | COc1cc2c(cc1OC(C)C)[C@H](c1ccc(Cl)cc1)N(c1ccc(N(C)C[C@H]3CC[C@H](N4CCN(C)C(=O)C4)CC3)cc1)C(=O)C2 [NVP-CGM097] | 6.4 | 5.4 | 5.7 | 5.9 | 4.6 | 5.5 | 7.2 | 3.3 | 5 | 5.8 | 11.4 | 16.5
4 | CN[C@@H](C)C(=O)N[C@H](C(=O)N1CCC[C@H]1c1nc(C(=O)c2ccc(F)cc2)cs1)C1CCCCC1 [NVP-LCL161] | 9.1 | 5 | 8.5 | 0.8 | 1.9 | 1.9 | 4.1 | 14.4 | 16.4 | 8.6 | 0.7 | 0
5 | Cn1c(Nc2ccc(C(F)(F)F)cc2)nc2cc(Oc3ccnc(-c4ncc(C(F)(F)F)[nH]4)c3)ccc21 [NVP-RAF265] | 1.2 | 4.2 | 1.9 | 0 | 0 | 0 | 0.4 | 2.2 | 0.3 | 1.7 | 6.9 | 4.5
6 | CC(=O)c1cc2c(o1)C(=O)c1ccccc1C2=O [Napabucasin] | 18.6 | 17.9 | 16.3 | 16.2 | 12.4 | 16.7 | 21.3 | 18.2 | 19 | 17.3 | 28.9 | 24.2
7 | CC1(C)CCC(c2ccc(Cl)cc2)=C(CN2CCN(c3ccc(C(=O)NS(=O)(=O)c4ccc(N[C@H](CCN5CCOCC5)CSc5ccccc5)c(S(=O)(=O)C(F)(F)F)c4)cc3)CC2)C1 [Navitoclax] | 0 | 10.2 | 0 | 0 | 0 | 0 | 0.9 | 2.6 | 2 | 3 | 24.2 | 5.9
8 | CN1C(=O)N[C@H](Cc2c[nH]c3c(Cl)cccc23)C1=O [Necrostatin 2] | 0 | 0 | 0 | 0 | 0 | 0 | 0 | 0 | 0 | 0 | 0 | 0
9 | O=c1ncn2nc(Sc3ccc(F)cc3F)ccc2c1-c1c(Cl)cccc1Cl [Neflamapimod] | 0 | 0.4 | 0.9 | 0.8 | 0 | 2 | 0.8 | 0 | 0.4 | 0 | 0.1 | 0
10 | COc1nc(N)nc2c1ncn2[C@@H]1O[C@H](CO)[C@@H](O)[C@@H]1O [Nelarabine] | 0 | 1.7 | 0 | 0 | 0 | 0 | 0 | 0 | 0 | 0 | 0 | 0
11 | CCOc1cc2ncc(C#N)c(Nc3ccc(OCc4ccccn4)c(Cl)c3)c2cc1NC(=O)/C=C/CN(C)C [Neratinib] | 1.4 | 0 | 4.8 | 0 | 0 | 0.4 | 2.9 | 5.3 | 0.6 | 0 | 0 | 1
12 | Cc1cn(-c2cc(NC(=O)c3ccc(C)c(Nc4nccc(-c5cccnc5)n4)c3)cc(C(F)(F)F)c2)cn1 [Nilotinib] | 0 | 0 | 3.4 | 0.1 | 1.2 | 0 | 2 | 0 | 0.9 | 0 | 0 | 0
13 | CC1(C)NC(=O)N(c2ccc([N+](=O)[O-])c(C(F)(F)F)c2)C1=O [Nilutamide] | 0.6 | 0 | 0 | 0 | 0 | 1.6 | 0.1 | 0 | 0 | 0 | 0.8 | 0
14 | COC(=O)c1ccc2c(c1)NC(=O)/C2=C(\Nc1ccc(N(C)C(=O)CN2CCN(C)CC2)cc1)c1ccccc1 [Nintedanib] | 0.6 | 3.5 | 3.2 | 2.5 | 1.8 | 4.2 | 7.9 | 0.2 | 3.6 | 5.5 | 3.1 | 6.3
